4 substances from patent US12319913B2, “5-halouracil-modified microRNAs and their use in the treatment of cancer” (The Research Foundation for The State University of New York, priority 2018, dated 2025) can be followed below.

In data set [1] the test system is AGS stomach cancer cells. The experiment in a line: Cell proliferation, AGS. The data set is classed as cell-based, human. The settings on record: compared to negative controls. The protocol:
(§1) For transfections, 1×10^5 cells were plated in six-well plates and transfected with 100 nM of control non-specific miRNA (Thermo Fischer), a modified microRNA, or exogenous native microRNA after 24 hours using Oligofectamine (Thermo Fischer) following the manufacturer's protocols. For reagent free transfection, cells were plated in 6 well plates at (1×10^5) cells per well. Twenty-four hours later 100 pmol miRNA (Control, miR-15a, Mimic-1) were diluted in Optimem (Thermo Fischer) and added to the plate. Media was changed after 24 hours. Media was supplemented with 10% fetal bovine serum (Thermo Fischer). Briefly, cells were cultured in growth media (DMEM/F12 supplemented with B27, 10 ng/mL bFGF, and 20 ng/mL EGF (Life Technologies) in ultra-low attachment flasks) for up to 6 days. The spheroid cells were maintained by collection through gentle centrifugation, dissociation to single cells and replating.
(§2) Cell proliferation assay: Twenty-four hours after transfection, cells were seeded in 96-well plates at a density of 2000 cells per well. The cell proliferation assay was performed on days 1 to 5 by incubating 10 μl WST-1 (Roche Applied Science, Mannheim, Germany) in the culture medium for 1 h and reading the absorbance at 450 and 630 nm. The cell proliferation rate was calculated by subtracting the […]. Experiments for the cell proliferation assay were performed at least three times. The O.D. was calculated by subtracting the absorbance at 630 nm from that at 450 nm. Proliferation experiments were performed three times.

Data set [2] concerns AsPC-1 pancreatic cancer cells. The experiment in a line: Cell proliferation, AsPC-1. The settings on record: APSC-1; 50 nM, 25 nM, 12.5 nM, 6.25 nM, and 3.125 nM. The data set is classed as cell-based, human. The procedure:
as §1, with “For transfections, 1×10^5 cells were plated in six-well plates and transfected with 100 nM of control non-specific miRNA (Thermo Fischer), a modified microRNA, or exogenous native microRNA after 24 hours using Oligofectamine (Thermo Fischer) following the manufacturer's protocols.” left out
as §2

In data set [3] the test system is acute lymphocytic leukemia cell line (REH). The experiment in a line: Cell proliferation, REH. The data set is classed as cell-based, human. Particulars: compared to negative controls. The protocol:
as §1, §2

Data set [4] concerns SKBR3 breast cancer cells. Briefly: Cell proliferation, SKBR3. The data set is classed as cell-based, human. Particulars: SKBR3, compared to negative controls. The procedure: as §1, §2
Data set [5] relates to A549 lung cancer cells. Briefly: Cell proliferation, A549. The data set is classed as cell-based, human. The settings on record: A549, compared to negative controls. The procedure:
as §1, §2

Data set [6] has as its system Hs766T pancreatic cancer cells. The experiment in a line: Cell proliferation, Hs766T. The data set is classed as cell-based, human. Particulars: compared to negative controls. The procedure: as §1, §2
For data set [7], the system named is acute lymphocytic leukemia cell line (REH). Briefly: Cell proliferation, REH. The data set is classed as cell-based, human. Particulars: 50 nM, 25 nM, 12.5 nM, 6.25 nM, and 3.125 nM.
The test system of data set [8] is Panc-1 pancreatic cancer cells. The experiment in a line: Cell proliferation, Panc-1. The data set is classed as cell-based, human. Particulars: PANC-1; 50 nM, 25 nM, 12.5 nM, 6.25 nM, and 3.125 nM. The protocol:
as §1, with “For transfections, 1×10^5 cells were plated in six-well plates and transfected with 100 nM of control non-specific miRNA (Thermo Fischer), a modified microRNA, or exogenous native microRNA after 24 hours using Oligofectamine (Thermo Fischer) following the manufacturer's protocols.” left out
as §2

Data set [9] concerns REH leukemia cells. Briefly: Cell cycle analysis, REH leukemia cells. The data set is classed as cell-based, human. The settings on record: 50 nM, compared to the control. The procedure: (§3) Cell cycle analysis: Twenty-four hours after transfection, cells were harvested and resuspended at 0.5 to 1×10^6 cells/mL in modified Krishan's buffer supplemented with 0.02 mg/mL RNase H and 0.05 mg/mL propidium iodide. Stained cells were detected by flow cytometry and results were analyzed with Modfit LT™ software. The experiments for cell cycle analysis were performed at least three times.

Data set [10] has as its system colon cancer stem cells. The experiment in a line: Anchorage-independent colony formation (soft agar). Particulars: soft agar / Matrigel matrix. The data set is classed as cell-based, human. The protocol: Anchorage-independent proliferation was studied to determine cancer cell colony forming ability. Cancer cells were trypsinized and counted and a total of 1×10^5 cells per well were transfected in 6-well plates with 25 nM modified microRNA or native miRs or a negative control miRNA with oligofectamine, and 6 hours after transfection, cells were recounted. A total of 20,000 cells in 0.35% agar (Bacto Agar; Becton Dickinson) were layered on top of 1 mL of a solidified 0.6% agar layer in a 35-mm dish. Growth media with B27, 10 ng/mL bFGF, and 20 ng/mL EGF were included in both layers. After 2 weeks of incubation, colonies more than […] in diameter were counted.

Data set [11] deals with HCT116 colon cancer cells. The experiment in a line: WST-1 cell proliferation assay, HCT116. The data set is classed as cell-based, human. Particulars: HCT-116, WST-1, six days after transfection. The protocol:
as §1, with “1×10^5 cells were plated in six-well plates and transfected with 100 nM of control non-specific miRNA (Thermo Fischer), a modified microRNA, or exogenous native microRNA after 24 hours using Oligofectamine” left out
as §2
(In general: Tetrazolium dyes change colour on reduction, which living cells bring about.)

The test system of data set [12] is HCT-116 cells. Briefly: Cell cycle analysis by flow cytometry, colon cancer cells. The data set is classed as cell-based, human. Particulars: colon cancer cells, compared to the control. The protocol:
as §3

Data set [13] has as its system YAP1, BMI1, DCLK1 and BCL2. The experiment in a line: Western blot of miR-15a targets in HCT-116 colon cancer stem cells. The data set is classed as cell-based, human. The settings on record: three days following transfection. The protocol: Western immunoblot analysis: […], equal amounts of protein (15 μg) extracted from cells lysed in RIPA buffer with protease inhibitor (Sigma) and were separated on 10%-12% sodium dodecyl sulfate-polyacrylamide gels using standard procedures. The primary antibodies used for the analysis were rabbit anti-YAP1 monoclonal antibody (1:10000) (Cell Signaling Technologies), anti-DLCK1 (1:500) (Abcam), anti-BCL2 (1:500) (NeoMarkers), anti-MDC1 (1:500), anti-SUZ12 (1:500), anti-pChk-1 (1:500), anti beta-actin (1:500), anti-BMI-1 (1:10000) (Cell Signaling Technologies), mouse anti-human TS antibody (1:500), anti-α-tubulin (1:50000) (Santa Cruz Biotech Inc.), anti-GAPDH (1:100000) (Santa Cruz Biotech Inc.), anti-E2F3 (1:500) (Santa Cruz Biotech Inc.), Horseradish peroxidase-conjugated antibodies against mouse or rabbit (1:5000, Santa Cruz Biotech Inc.) were used as the secondary antibodies. Protein bands were visualized with autoradiography film using SuperSignal West Pico Chemiluminescent Substrate (Thermo Fischer). Western blot density was quantified using Image J software. […]
A general note: In western blotting, separated proteins are transferred to a membrane and probed.

Data set [14] relates to MDA-MB-231 breast cancer cells. The experiment in a line: Cell cycle analysis, MDA-MB-231 breast cancer cells. The data set is classed as cell-based, human. Particulars: compared to native exogenous microRNAs or NC. The protocol: as §3
Data set [15] has as its system MDA-MB-231 triple negative breast cancer cells. The experiment in a line: MTT cell proliferation, MDA-MB-231, with or without oligofectamine. The data set is classed as cell-based, human. The protocol: as §1
Furthermore, to test whether or not the modified microRNAs of the present disclosure can be delivered directly to cells and taken up by the cancer cells without the use of transfer agents or vehicles (i.e., oligofectamine), MDA-MB-231 triple negative breast cancer cells were transfected with miR-NC (negative control), exogenous unmodified miR-200b or miR-489, 5-FU-miR-200b or modified miR-489 by using oligofectamine or without delivery vehicle. As shown in FIGS. 17A-17B and 20A, the effects of expression of the exemplary modified miRs tested on breast cancer cell proliferation were monitored by MTT assay for 6 days upon transfection or incubation.

For data set [16], the system named is fibronectin. Briefly: Western blot of miR-200b target in breast cancer cells. The data set is classed as cell-based, human. The settings on record: compared to exogenous native miR-200b and negative control. The protocol:
(§4) Western immunoblot analysis: Forty-eight hours after transfection, equal amounts of protein (15 μg) extracted from cells lysed in RIPA buffer with protease inhibitor (Sigma) and were separated on 10%-12% sodium dodecyl sulfate-polyacrylamide gels using standard procedures. The primary antibodies used for the analysis were rabbit anti-YAP1 monoclonal antibody (1:10000) (Cell Signaling Technologies), anti-DLCK1 (1:500) (Abcam), anti-BCL2 (1:500) (NeoMarkers), anti-MDC1 (1:500), anti-SUZ12 (1:500), anti-pChk-1 (1:500), anti beta-actin (1:500), anti-BMI-1 (1:10000) (Cell Signaling Technologies), mouse anti-human TS antibody (1:500), anti-α-tubulin (1:50000) (Santa Cruz Biotech Inc.), anti-GAPDH (1:100000) (Santa Cruz Biotech Inc.), anti-E2F3 (1:500) (Santa Cruz Biotech Inc.), Horseradish peroxidase-conjugated antibodies against mouse or rabbit (1:5000, Santa Cruz Biotech Inc.) were used as the secondary antibodies. Protein bands were visualized with autoradiography film using SuperSignal West Pico Chemiluminescent Substrate (Thermo Fischer). Western blot density was quantified using Image J software.

The target of data set [17] is T1, TS-FdUMP (Homo sapiens, UniProt P04818).
T1 construct: endogenous in cells
T1 sequence (P04818 2-313 limits assumed): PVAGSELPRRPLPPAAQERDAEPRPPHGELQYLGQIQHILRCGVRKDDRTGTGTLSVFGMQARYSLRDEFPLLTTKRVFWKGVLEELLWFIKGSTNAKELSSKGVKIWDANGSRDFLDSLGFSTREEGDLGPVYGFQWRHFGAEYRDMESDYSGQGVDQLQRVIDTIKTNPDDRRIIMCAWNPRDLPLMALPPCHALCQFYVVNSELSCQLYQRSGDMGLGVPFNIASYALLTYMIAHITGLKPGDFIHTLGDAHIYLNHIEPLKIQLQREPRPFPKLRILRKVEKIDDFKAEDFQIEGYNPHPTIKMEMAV
The experiment in a line: Western blot of TS / TS-FdUMP in MDA-MB-231 cells. The data set is classed as cell-based. Particulars: MDA-MB-231 cell line. The protocol: as §4

[5FU] = 5-fluorouracil base replacing uracil

As for “GU^FCCAGU^FU^FU^FU^FCCCAGGAAU^FCCCU^F (GUCCAGUUUUCCCAGGAAUCCCU; RNA, [5FU] at 2, 7, 8, 9, 10, 19, 23, backbone not given here) [modified miR-145]”, the “gastric cancer cell proliferation” value in [1] is “inhibited”. The “cell proliferation, dose dependence” value in [2] and in data set [8] was “inhibited in a dose dependent manner” in each case. Moreover, in [3], the “leukemia cancer cell proliferation” value was “inhibited”. Besides, the “breast cancer cell proliferation” value in data set [4] is “inhibited”. The “lung cancer cell proliferation” value in data set [5] was “inhibited”. For the same substance, the “pancreatic cancer cell proliferation” value in [6] is “inhibited”. For the same substance, in data set [7], the “leukemia cancer cell proliferation, dose dependence” value is reported as “inhibited in a dose dependent manner”. Further, the G1/S ratio entry in [9] is “significant fold increase in the G1/S ratio”.

Consider “UAGCAGCACAUAAUGGUUUGUG (RNA, backbone not given here; listed as Homo sapiens) [unmodified miR-15a, reference compound]”, for which, in [10], the “colony / sphere formation” value is given as “very few colonies”. For the same substance, the “decrease of cell proliferation compared to control” value in [11] is listed as 53%. Also, in data set [12], the “increase in the G1/S ratio” value was “about 3 fold”. Besides, in data set [13], the “protein levels of YAP1, BMI1, DCLK1 and BCL2” value is reported as “reduced”.

For “U^FAAU^FACU^FGCCU^FGGU^FAAU^FGAU^FGA (UAAUACUGCCUGGUAAUGAUGA; RNA, [5FU] at 1, 4, 7, 11, 14, 17, 20, backbone not given here) [modified miR-200b, miR-200b in which all (7) U bases are replaced by 5-fluorouracil]”, in data set [1], the “gastric cancer cell proliferation” value is “inhibited”. Further, the “cell proliferation, dose dependence” value in data set [2] and in data set [8] was “inhibited in a dose dependent manner” in each case. Further, the “sub G1 and G1/S ratio” value in [14] was “significantly increase”. In addition, the “leukemia cancer cell proliferation” value in data set [3] is given as “inhibited”. Moreover, in data set [4], the “breast cancer cell proliferation” value is recorded as “inhibited”. Also, in data set [15] (MDA-MB-231, MTT assay), the “cell proliferation without delivery vehicle (no oligofectamine)” value is recorded as “effectively reduced cell proliferation”. In addition, in [15] (MDA-MB-231, MTT assay for 6 days, vs miR-NC), the “cell proliferation in the presence of oligofectamine” value is listed as “dramatically reduced the cell growth from day 3”. In addition, the “lung cancer cell proliferation” value in [5] is recorded as “inhibited”. Further, the “pancreatic cancer cell proliferation” value in data set [6] is “inhibited”. Moreover, the “leukemia cancer cell proliferation, dose dependence” value in [7] is recorded as “inhibited in a dose dependent manner”. Moreover, the “fibronectin (miR-200b target gene) expression” value in [16] is given as “reduction of fibronectin”. In addition, in data set [17], the TS-FdUMP break down entry is “breaks down TS-FdUMP”.

For “U^FGAGGU^FAGU^FAGGU^FU^FGU^FAU^FAGU^FU^F [modified miR-let-7]”, in data set [1], the “gastric cancer cell proliferation” value is “inhibited”. For the same substance, the “cell proliferation, dose dependence” value in [2] and in [8] was “inhibited in a dose dependent manner” each time. The “leukemia cancer cell proliferation” value in [3] is reported as “inhibited”. Further, the “breast cancer cell proliferation” value in [4] is recorded as “inhibited”. In addition, the “lung cancer cell proliferation” value in data set [5] is listed as “inhibited”. Moreover, in data set [6], the “pancreatic cancer cell proliferation” value was “inhibited”. Further, in data set [7], the “leukemia cancer cell proliferation, dose dependence” value was “inhibited in a dose dependent manner”. In addition, the G1/S ratio entry in data set [9] is “significant fold increase in the G1/S ratio”.
